{
  "source": "patent US12458660B2",
  "about": "“Methods of attenuating an immune response by inhibition of BFL1” (CHILDREN'S HOSPITAL MEDICAL CENTER, priority 2018, dated 2025)",
  "key": {"[1]": {"biological_target": "T1, BCL2A1 (A1) - NOXA binding (Mus musculus, UniProt Q07440, C113S/P104K)", "T1 construct": "A1 residues 1-152 (P104K, C113S) were expressed in the BL21 strain of Escherichia coli; hexa-His-MBP (cleaved yes); made in house; host or cells: Escherichia coli BL21", "T1 sequence (Q07440 1-152 P104K/C113S)": "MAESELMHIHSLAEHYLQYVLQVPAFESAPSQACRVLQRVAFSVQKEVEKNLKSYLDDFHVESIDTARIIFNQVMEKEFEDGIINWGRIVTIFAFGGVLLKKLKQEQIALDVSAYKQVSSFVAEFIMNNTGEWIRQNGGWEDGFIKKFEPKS", "experiment": "Competition fluorescence polarization assay, displacement of FITC-labeled mNOXA peptide from A1", "description": "Representative compounds were additionally tested for inhibition of BH3 binding through competition-based fluorescence polarization (FP) assays. These assays were carried out using fluorescently labeled NOXA peptide which binds within the BH3-binding groove. The FP assay measures the tumbling rate of the labeled NOXA peptide. When NOXA is bound to A1, its rate of tumbling is low (and FP is high), whereas an effective inhibitor compound will displace NOXA, causing a fast rate of tumbling (and low FP value). Initially, a single high-dose experiment was performed with each compound using 100 μM of compound with BCL2A1 and FITC-NOXA, to observe the relative inhibition of the A1-NOXA interaction (FIG. 17B).\nThese compounds and any that were three standard deviations or more above the thermal shift controls in the DSF assays, along with those that were initially derived from early compounds with reasonable IC50 values, were tested in a dose-response experiment. To this end, 30 putative P2 inhibitors and 44 putative P4 inhibitors had their IC50 values determined. Of the dose responses, there was a surprising enrichment of putative P4 inhibitors among those that had IC50 values less than 50 μM. […] The following linear equation was used in the calculations (Tallarida et al., 2011),\nCompounds were additionally tested for specificity of binding by displacement of FITC-labeled mouse NOXA (mNoxa; Peptide 2.0) peptide via fluorescence polarization assay (FP). FP assays were performed in two steps: single-point high-concentration compounds and dose response of fluorescence polarization hits. A1 was added at 3 μM to 100 μM of each compound in 20 mM Tris pH 7, 500 mM NaCl, 0.005% Tween-20 buffer. After addition of 375 nM labeled mNOXA, 96-well plates were incubated overnight at 20° C. in the dark to achieve equilibrium before fluorescence polarization was measured with a Biotek Synergy H2. Autofluorescent compounds and fluorescent quenching compounds were corrected via ratiometric correction as described by Shapiro et al., 2009.\nDose response curves were measured by adding 3 μM A1 to a serial two-fold dilution series of each compound ranging from 400 μM to 781 nM in 20 mM Tris pH 7, 500 mM NaCl, 0.005% Tween-20 buffer. Some compounds were further tested to assess the accuracy of these two-fold dilutions with serial 1.33-fold dilutions. A1, compounds, buffer and lastly, 375 nM FITC-labeled mNOXA were added to each well and incubated in the dark at 20° C. overnight to achieve equilibrium, followed by measurement of polarization. All dose responses were performed in triplicate."}, "primary splenocyte cells": {"test_system": "primary splenocyte cells", "experiment": "In vitro apoptosis assay in activated primary splenocyte cells (trypan blue)", "type": "cell-based, mice", "details": "WT and Bax/Bak-/- splenocytes, +/- polybrene", "description": "An in vitro apoptosis assay utilizing primary splenocyte cells was used as a model system. In this system, compounds were added to wild-type primary splenocyte cells from mice that had been cultured and activated over four days. […] Mice deficient in Bax/Bak are unable to undergo intrinsic apoptosis due to the lack of the executioners in the pathway. […] Polybrene™ (hexadimethrine bromide) is a transfection reagent used to assist negatively-charged DNA molecules in traversal of the plasma membrane. Polybrene was included here to test whether it would improve the activity of negatively charged compounds.\nSingle-cell suspensions from spleen were generated by maceration through a 100 μm nylon mesh followed by LympholyteM ficoll gradient separation (Cedarlane Labs, Burlington, NC). Purified cells were then cultured on anti-CD3 coated (3 μg/mL, coated overnight, Biolegend, San Diego, CA) six-well plates in the presence of soluble anti-CD28 (2 μg/mL, Bio X Cell, West Lebanon, NH) and IL-2 (10 ng/mL, R&D Systems, Inc., Minneapolis, MN) in RPMI media (Life Technologies, Carlsbad, CA) for 24 hours at 37° C. Cells were then washed and cultured again in IL-2 (10 ng/mL) for 24 hours at 37° C. […]"}},
  "data": [
    {"compound": "Cc1ccc(NC(=O)c2cc3ccccc3c(/N=N/c3cc(S(=O)(=O)O)ccc3O)c2O)c(C)c1", "note": "[Compound 1.001]", "values": [
      {"measurement": "inhibition of Noxa binding in FP assays", "setting": "[1]", "value": "strong inhibition"},
      {"measurement": "additivity for inhibition of A1-Noxa binding, checkerboard assay", "setting": "[1]; NSC-97318 (P2) with NSC-45195 (P4), wide range of concentrations", "value": "low level additivity"},
      {"measurement": "effect on cell survival", "setting": "primary splenocyte cells", "value": "some effect"}
    ]}
  ]
}
